Test results as given in paper PMC10778824, “New Chalcone Derivatives Containing 2,4-Dichlorobenzenesulfonamide Moiety with Anticancer and Antioxidant Properties” (International Journal of Molecular Sciences, 2023).
Converted amounts (≈) assume the structure as drawn.

What was measured:
[1] = system: cancer cells (HeLa, HL-60, AGS); assay: MTT assay, cancer cells taken together; format: cell-based, human; conditions: HL-60 and AGS together
Procedure: (§1) The human gastric adenocarcinoma AGS, cervical cancer HeLa, and acute promyelocytic leukemia HL-60 cells were obtained from the American Type Culture Collection (ATCC, Manassas, VA, USA). Human neonatal fibroblasts were obtained from LGC Standards (Luckenwalde, Germany). The HeLa and AGS lines were cultured in Dulbecco’s modified Eagle’s medium (DMEM) and DMEM/F12 medium, respectively. The HL-60 line was maintained in RPMI-1640 medium. Fibroblasts were cultured in Fibroblast Growth Medium with Supplement Mix. All the media were supplemented with 100 units/mL of penicillin, 100 µg/mL of streptomycin, and 10% (v/v) fetal bovine serum (FBS) (Merck Millipore, Burlington, MA, USA). The cells were incubated at 37 °C and 5% CO2.
(§2) To estimate the cytotoxic effect of the five compounds (4–8), MTT (3-(4,5-dimethylthiazol-2-yl)-2,5-diphenyltetrazolium bromide) assay was used. Oxaliplatin was used as a positive control in this test. All the cell lines were seeded in 96-well plates at a density of 5 × 10^3 cells/well and treated for 24 h with the compounds at concentrations of 0.5–40 µg/mL. Oxaliplatin was tested in the range of 20–400 µg/mL (50–1000 µM). After treatment, the cells were incubated with MTT (0.5 mg/mL; Merck Millipore, Burlington, MA, USA) for 3 h. Then, DMSO was used to dissolve formazan crystals, and the absorbance of the formazan solution was measured with a plate reader (Epoch, BioTek Instruments, Santa Clara, CA, USA). All the results (±standard deviation (SD)) were obtained from six repetitions in at least two independent experiments. The data are expressed as IC50 values (µg/mL).

[2] = DPPH radical scavenging assay; conditions: concentration of 800 µg/mL
Procedure: The DPPH radical scavenging assay of samples (ligands or complexes) was performed with ascorbic acid as a standard. Different concentrations of chalcone derivatives, dissolved in DMSO, were mixed with the same amount of 0.06 mM DPPH methanolic solution and incubated at room temperature in the dark for 30 min. The absorbance was analyzed at λ = 517 nm using a 96-well microplate reader (Epoch, BioTek System, Winooski, VT, USA). The control was composed of DPPH and DMSO. DPPH inhibition was calculated according to the following Formula (2):DPPH Inhibition (%) = [(Acontrol − Asample)/Acontrol] × 100%(2)

[3] = molecular target: T1, neutrophil elastase (Sus scrofa, UniProt P00772); assay: Elastase assay (SANA substrate); format: biochemical, porcine; conditions: Tris-HCl pH 8.0, SANA substrate; read-out: neutrophil elastase inhibition IC50 (converted)
T1 construct: purchased Sigma Chemical Co. (St. Louis, MO, USA)
T1 sequence (P00772 27-266): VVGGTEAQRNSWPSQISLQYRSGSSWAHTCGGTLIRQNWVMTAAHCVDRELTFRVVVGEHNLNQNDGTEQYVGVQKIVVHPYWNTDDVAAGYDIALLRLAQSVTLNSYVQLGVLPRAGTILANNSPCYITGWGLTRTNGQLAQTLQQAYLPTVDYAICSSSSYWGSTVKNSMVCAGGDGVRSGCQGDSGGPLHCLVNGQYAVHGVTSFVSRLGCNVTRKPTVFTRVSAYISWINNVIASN
Procedure: The elastase analysis was performed according to the spectrophotometric method with oleanolic acid as a reference. The reaction mixture (Tris-HCl buffer (pH 8.0), 1.0 μg/mL porcine pancreatic elastase, and different concentrations of chalcone derivatives was preincubated at room temperature for 15 min. Afterwards, the addition of the substrate—SANA—started the reaction. Product formation changes were analyzed at λ = 410 nm for 20 min every 20 s (Epoch, BioTek Instruments, Santa Clara, CA, USA). The control was composed of Tris-HCl buffer (pH 8.0), an appropriate concentration of the chalcone derivative, and SANA.

[4] = system: Listeria monocytogenes PCM2191; assay: MIC determination; format: cell-based; conditions: 37 °C, 48 h
Procedure: (§3) The MIC determinations for Staphylococcus epidermidis ATCC14990, Staphylococcus aureus ATCC6538, Enterococcus faecalis ATCC51299, Klebsiella pneumoniae ATCC13883, Escherichia coli ATCC8739, Salmonella enterica ATCC13076, Helicobacter pylori ATCC43504, Campylobacter jejuni ZMF, Campylobacter coli ZMF, Bacillus cereus PCM 1948,2019 (ATCC11778), and Listeria monocytogenes PCM2191 were performed based on the methodology described by Krauze-Baranowska et al.. The procedure for H. pylori was used in the experiments with Campylobacter strains, and the procedure for B. subtilis was used in the experiments with L. monocytogenes and B. cereus. The tested samples were dissolved in DMSO and diluted with water (concentration of approximately 500 μg/mL). The solutions were diluted geometrically by transferring the mixture/dilution (100 μL) from the first to the twelfth well of the microtiter plate. The final concentrations of samples used for antimicrobial effects ranged from 500 to 0.006 µg/mL. Ampicillin was used as a reference compound in the concentration range of 128 to 0.0625 µg/mL. The tests were incubated at 37 °C for 48 h. The diluent concentration had no effect on the activity of the tested compounds. All experiments were performed in triplicate.

[5] = system: Helicobacter pylori ATCC43504; assay: MIC determination; format: cell-based; conditions: 37 °C, 48 h
Procedure: as §3

[6] = system: Staphylococcus epidermidis ATCC14990; assay: MIC determination; format: cell-based; conditions: 37 °C, 48 h
Procedure: as §3

[7] = system: Enterococcus faecalis ATCC51299; assay: MIC determination; format: cell-based; conditions: 37 °C, 48 h
Procedure: as §3

[8] = system: Bacillus cereus PCM 1948,2019 (ATCC11778); assay: MIC determination; format: cell-based; conditions: 37 °C, 48 h
Procedure: as §3

[9] = system: Campylobacter coli ZMF; assay: MIC determination; format: cell-based; conditions: 37 °C, 48 h
Procedure: as §3

[10] = system: Salmonella enterica ATCC13076; assay: MIC determination; format: cell-based; conditions: 37 °C, 48 h
Procedure: as §3

[11] = system: Escherichia coli ATCC8739; assay: MIC determination; format: cell-based; conditions: 37 °C, 48 h
Procedure: as §3

[12] = system: Staphylococcus aureus ATCC6538; assay: MIC determination; format: cell-based; conditions: 37 °C, 48 h
Procedure: as §3

[13] = system: Klebsiella pneumoniae ATCC13883; assay: MIC determination; format: cell-based; conditions: 37 °C, 48 h
Procedure: as §3

[14] = system: Campylobacter jejuni ZMF; assay: MIC determination; format: cell-based; conditions: 37 °C, 48 h
Procedure: as §3

[15] = system: acute promyelocytic leukemia HL-60; assay: MTT assay, HL-60 cells; format: cell-based, human; conditions: for IC50: Homo sapiens, HL-60, 24 h; for selectivity index HL-60: SI = IC50 noncancer cells/IC50 cancer cells, in relation to human neonatal fibroblasts
Procedure: as §1, §2

[16] = system: human neonatal fibroblasts; assay: MTT assay, noncancerous fibroblasts; format: cell-based; conditions: 24 h treatment; for IC50: Homo sapiens, Fibroblast
Procedure: as §1, §2

[17] = β-Carotene bleaching test; conditions: compared to ascorbic acid
Procedure: β-Carotene bleaching test was based on the method described by Olszowy et al. with some modifications. First, 1 mg of β-carotene was dissolved in 5 mL of chloroform. Afterwards, […] of linoleic acid and 200 mg of Tween 40 were added. The chloroform was evaporated, and 50 mL of oxygenized water was added. The created emulsion was mixed with different concentrations of chalcone derivatives. β-carotene bleaching was analyzed at λ = 492 nm before (t = 0 min) and after 90 min (t = 90 min) of incubation at 50 °C (Epoch, BioTek Instruments, Santa Clara, CA, USA). Ascorbic acid was used as a standard. The control was composed of emulsion and DMSO.
The results were calculated according to the following Formula (4):[(AsampleT0 − AsampleT90)/(AcontrolT0 − AcontrolT90) × 100%(4)

[18] = system: gastric adenocarcinoma AGS; assay: MTT assay, AGS cells; format: cell-based, human; conditions: for IC50: Homo sapiens, AGS, 24 h; for selectivity index AGS: SI = IC50 noncancer cells/IC50 cancer cells, in relation to human neonatal fibroblasts
Procedure: as §1, §2

[19] = system: cervical cancer HeLa; assay: MTT assay, HeLa cells; format: cell-based, human; conditions: for IC50: Homo sapiens, HeLa; for selectivity index HeLa: SI = IC50 noncancer cells/IC50 cancer cells, in relation to human neonatal fibroblasts
Procedure: as §1, §2

[20] = system: caspase-9; assay: Caspase-Glo 9 activity assay in AGS cells; format: cell-based, human; conditions: 20 µg/mL
Procedure: (§4) The AGS cells were seeded in a 96-well plate (5 × 10^3 cells/well) and treated with compound 5 at concentrations of 1, 5, 7, and 10 µg/mL for 24 h; oxaliplatin at the concentration of 20 µg/mL; and DMSO (1%, v/v). The cells were then treated with reagents from Caspase-Glo 8 Assay or Caspase-Glo 9 Assay (Promega, Madison, WI, USA) and measured with the luminometer Glomax Multi + Detection System (Promega, Madison, WI, USA). The experiments were performed in two independent repeats in three repetitions.

[21] = system: AGS cells; assay: Cell cycle analysis (propidium iodide); format: cell-based, human; conditions: 40 µg/mL
Procedure: The AGS cells were seeded in a 6-well plate (5 × 10^5 cells/well) and incubated with compound 5 at concentrations of 1, 5, and 10 µg/mL for 48 h; oxaliplatin at the concentration of 40 µg/mL; and DMSO (0.2%, v/v). After treatment, the cells were stained with propidium iodide from the Muse Cell Cycle Assay Kit (Merck Millipore, Burlington, MA, USA), and the amount of cells in each phase of the cell cycle was determined using the Muse Cell Analyzer (Merck Millipore, Burlington, MA, USA). The experiment was independently repeated three times.

[22] = system: AGS cells; assay: MitoPotential assay (mitochondrial membrane depolarization); format: cell-based, human; conditions: 40 µg/mL, 5 h
Procedure: The AGS cells were seeded in a 12-well plate (1 × 10^5 cells/well) and incubated with compound 5 at concentrations of 1, 5, and 10 µg/mL; oxaliplatin at the concentration of 40 µg/mL; and DMSO (0.2%, v/v). After 5 h of exposure, the cells were stained with the Muse MitoPotential Assay Kit (Merck Millipore, Burlington, MA, USA) and analyzed with the Muse Cell Analyzer (Merck Millipore, Burlington, MA, USA). The percentage of depolarized live and dead cells was estimated in the experiments, which were independently repeated three times.

[23] = system: caspase-8; assay: Caspase-Glo 8 activity assay in AGS cells; format: cell-based, human; conditions: 20 µg/mL
Procedure: as §4

SMILES | % of DPPH radical inhibition [2] [%] | IC50 [3] [µM] | MIC [4] [µg/mL] | MIC [5] [µg/mL] | MIC [6] [µg/mL] | MIC [7] [µg/mL] | MIC [8] [µg/mL] | MIC [9] [µg/mL] | MIC [10] [µg/mL] | MIC [11] [µg/mL] | MIC [12] [µg/mL] | MIC [13] [µg/mL] | MIC [14] [µg/mL] | IC50 ([15]; MTT, 24 h treatment) [µg/mL] | selectivity index HL-60 [15] | IC50 [16] [µg/mL] | IC50 ([18]; MTT, 24 h treatment) [µg/mL] | selectivity index AGS [18] | IC50 ([19]; MTT, 24 h treatment) [µg/mL] | selectivity index HeLa [19] | also measured
Cc1cc(S(=O)(=O)Nc2ccc(C(=O)/C=C/c3ccccc3)cc2)c(Cl)cc1Cl [Compound 4, (E)-2,4-Dichloro-N-(4-Cinnamoylphenyl)-5-Methylbenzenesulfonamide] | 19.49 ± 0.38 | 119 | > 500 | > 500 | > 500 | > 500 | > 500 | > 500 | > 500 | > 500 | > 500 | > 500 | > 500 | 2.37 ± 0.23 (≈ 5.31 µM) | 13.57 | 32.1 ± 2.91 (≈ 72 µM) | 1.23 ± 0.23 (≈ 2.76 µM) | 26.14 | 9.63 ± 0.06 (≈ 21.6 µM) | 3.34 | IC50 toward cancer cells [1]: weaker activity; protection of lipids oxidation / reduction of lipid peroxidation (in words) [17]: weaker properties
Cc1cc(S(=O)(=O)Nc2ccc(C(=O)/C=C/c3ccc(F)cc3)cc2)c(Cl)cc1Cl [Compound 6, (E)-2,4-Dichloro-N-{4-[3-(4-Fluorophenyl)acryloyl]phenyl}-5-Methylbenzenesulfonamide] | 21.85 ± 0.22 | 181 | > 500 | > 500 | > 500 | > 500 | > 500 | > 500 | > 500 | > 500 | > 500 | > 500 | > 500 | 1.69 ± 0.2 (≈ 3.64 µM) | 15.98 | 27 ± 2.29 (≈ 58.1 µM) | 4.49 ± 0.44 (≈ 9.67 µM) | 6.01 | 8.65 ± 0.52 (≈ 18.6 µM) | 3.12 | IC50 toward cancer cells [1]: weaker activity
Cc1cc(S(=O)(=O)Nc2ccc(C(=O)/C=C/c3ccc(Cl)cc3)cc2)c(Cl)cc1Cl [Compound 7, (E)-2,4-Dichloro-N-{4-[3-(4-Chlorophenyl)acryloyl]phenyl}-5-Methylbenzenesulfonamide] | 18.70 ± 0.04 | 53.3 | > 500 | > 500 | > 500 | > 500 | > 500 | > 500 | > 500 | > 500 | > 500 | > 500 | > 500 | < 1.57 | 20.51 | 29.9 ± 3.27 (≈ 62.3 µM) | < 1 | 19.08 | 6.34 ± 0.04 (≈ 13.2 µM) | 4.72 | IC50 HL-60 ([15]; MTT, 24 h treatment): 1.46 ± 0.20 µg/mL (≈ 3.04 µM)
O=C1[O][Pt]2([NH][C@@H]3CCCC[C@H]3[NH]2)[O]C1=O [Oxaliplatin, reference compound] |  |  |  |  |  |  |  |  |  |  |  |  |  |  |  |  |  |  |  |  | caspase-9 activity (in words) [20]: notable increase; amount of cells in subG0 phase (in words) [21]: significant increase; cells in G0/G1 phase [21]: 35.6%; cells in G2/M phase [21]: 32.4%; cells in S phase [21]: 14.2%; IC50 Fibroblasts [16]: 95.79 ± 3.24 µg/mL; IC50 AGS ([18]; MTT, 24 h treatment): 17.90 ± 1.20 µg/mL; changes in percentages of live, depolarized, and dead cells versus control [22]: no observable changes; caspase-8 activity (in words) [23]: notable increase; IC50 HeLa ([19]; MTT, 24 h treatment): 35.76 ± 1.72 µg/mL
CC1(C)S[C@@H]2[C@H](NC(=O)[C@H](N)c3ccccc3)C(=O)N2[C@H]1C(=O)O [ampicillin, reference compound] |  |  | 16 (≈ 45.8 µM) | 3.2 (≈ 9.16 µM) | 0.312 (≈ 0.894 µM) | 0.16 (≈ 0.458 µM) | 125 (≈ 358 µM) | 16 (≈ 45.8 µM) | 0.5 (≈ 1.43 µM) | 3.9 (≈ 11.2 µM) | 0.08 (≈ 0.229 µM) | 62.5 (≈ 179 µM) | 32 (≈ 91.6 µM) |  |  |  |  |  |  |  | 
